EP4636093A1, “TARGETING MAPK-ERK PATHWAY FOR ENHANCING NUCLEIC ACID DELIVERY” (priority 2024, dated 2025)
Where two headings read alike, the source gives them in different places.

Key:
[1] = system: T cells; assay type: cell-based, Human; settings: for increase in CAR expression: with vs without 400 nM deucravacitinib
[2] = system: human T lymphocytes; assay type: cell-based; settings: AAV6 (GFP); 20 µM Vx-11e compared to untreated cells; average, three donors

| Molecule | optimal doses [1] [µM] | VSV-LV mediated transduction efficiency increase ([1]; VSV-LV, 20 µM VX-11e, average, three donors) | AAV6 mediated transduction efficiency increase [2] | increase in CAR expression ([1]; CD4-LV, CD4 T cells, average, three donors) | increase in CAR expression ([1]; CD8-LV, CD8 T cells, average, three donors) [fold] | optimal dose ([1]; treatment of cells for 24 hours, CAR expression after LV transduction (one donor)) [nM] |
| --- | --- | --- | --- | --- | --- | --- |
| Cc1cnc(Nc2ccc(F)cc2Cl)nc1-c1c[nH]c(C(=O)N[C@H](CO)c2cccc(Cl)c2)c1 [VX-11e] | 20 | up to 1.8 fold | up to 2.1 fold | – | – | – |
| CC(C)Nc1cc(-c2c[nH]c(C(=O)N[C@H](CO)c3cccc(Cl)c3)c2)c(Cl)cn1 [ulixertinib] | 5 | – | – | – | – | – |
| Deucravacitinib | – | – | – | up to 1.7 fold | ≤ 3.6 | 400 |
